Entries after “also recorded” stand apart in the source; their conditions may differ.
How the values were obtained:
plants = settings: background statement; cited from earlier work
cancer cells = experiment: Observations on treated cancer cells (Oil Red O staining, removal from culture medium); type: cell-based
From the text: Rather, it appears that 12-oxo-PDA (and the related compounds) irreversibly interferes with the cellular mechanisms involved in cell growth, differentiation and the interaction between the cells with the extracellular matrix.

[1] = tested on: Burkitt's lymphoma cells (Raji); experiment: Growth arrest and apoptosis in Raji cells; type: cell-based; settings: synthetic coronatine analog 0.5 mM (FIG. 15)
Description: (§1) In the following examples, all referenced cell lines were purchased from ATCC. T47D cells were maintained in Dulbecco's Modified Eagle medium (DMEM) (purchased from Life Technologies, Inc.) supplemented with 10% fetal calf serum (purchased from Life Technologies, Inc.), insulin (5 μg/ml), and antibiotics. CRL-5985, CRL-2632 and Raji cells were maintained in RPMI-1640 medium supplemented with 10% fetal calf serum (purchased from Life Technologies, Inc.) and antibiotics. Western blot analysis was performed by using phospho-serine 807/811-Rb, Rb, cyclin D1, cyclin D3, cdk-2, cdk-4, bcl-2, phospho-p38, bax, bak, PARP (cell signaling technology), MCL-1 (purchased from Biosource International) and beta-tubulin antibodies (purchased from Becton-Dickenson). Proteins were separated using an 8-10% SDS-polyacrylamide gel electrophoresis (SDS-PAGE), transferred to Immobilon-P membranes and immunoblotted with antibodies using the ECL detection system.
(§2) CRL-2632 diffuse large B-cell lymphoma cells (and Burkitt's lymphoma cells (“Raji”)) were treated with 12-oxo-PDA and a synthetic coronatine analog (0.5 mM).

C-FOS mRNA = experiment: Real-time RT-PCR in T-47D cells, c-fos; type: cell-based, human; settings: 25 uM, 48 hours, vs ethanol (FIG. 12)
Description: (§3) For real-time RT-PCR experiments T-47D cells were treated with ethanol (control) or with 25 uM 12-OPDA for 48 hours. Total RNA was isolated using TRIzol reagent (Invitrogen, Carlsbad, Calif.) followed by purification on RNeasy columns (Qiagen, Palo Alto, Calif.). For quantitative real-time RT-PCR analyses, total RNA from each sample was reverse transcribed with MuLV reverse transcriptase (Applied Biosystems, Foster City, Calif.) and random hexamer primers. The SYBR Green PCR Kit (Applied Biosystems) was used for quantitative real-time RT-PCR analysis. The primers for human ubuquitin, cyclin D1, p27 and c-fos were designed using Primer Express software (Applied Biosystems). 12-oxo-PDA was purchased from Larodon Fine Chemicals AB, Sweden. Jasmonic acid was purchased from Sigma-Aldrich Co. The indanoyl amino acid conjugate of coronatine (i.e., synthetic 6-azido-1-oxo-indanoyl isoleucine) was obtained from Dr. Wilhelm Boland (Max Planck Institute, Germany).
(§4) T-47D cells were exposed to 12-oxo-PDA in an effort to determine the effect of 12-oxo-PDA on gene expression. FIGS. 10, 11 and 12 show 12-OPDA mediated regulation of cyclin D1, p27 and c-fos mRNA levels, respectively, in T-47D cells compared to ethanol treatment alone. […] Thus, it appears that 12-oxo-PDA has a direct regulatory/inhibitory effect on the cyclin D1 and Rb protein. […]

[2] = tested on: CRL-2632 human malignant diffuse large B-cell lymphoma cells; experiment: Cell growth, cell number and morphology of lymphoma cells; type: cell-based; settings: for cell growth arrest and cell death: CRL-2632, summary statement, dose dependent
Description: as §1
(§5) Cell lines CRL-2632 (B-cell lymphoma cells), CRL-5985 (human lung adenocarcinoma cells) and T-47D (human breast ductal adenocarcinoma cells) were exposed to 12-OPDA over an eight-day period. Cell viability and cell growth were measured versus controls.
(§6) The effects on cell growth and number for T-47D human breast cancer cells and CRL-2632 human malignant diffuse large B-cell lymphoma cells following treatment with 12-oxo-PDA and jasmonic acid (“JA”) over a four-day period were measured.
as §2

Bax = experiment: Immunoblot, Bax expression in CRL-2632 cells; type: cell-based, human; settings: CRL-2632, 20 μM, one to six hours (FIG. 13)
Description: as §1
(§7) Cells were incubated in the presence of 12-oxo-PDA (20 μM) for between one and six hours. The cells were then washed and lysed to extract total proteins. Thereafter, 30 μg extracts were resolved on 8% SDS-PAGE gel and probed with anti-PARP, anti-MCL-1, anti-bcl-2, anti-bax and anti-bak antibodies. […] Similarly, FIG. 13 illustrates the effects of 12-oxo-PDA treatment on apoptosis related proteins (i.e., Bcl-2, MCL-1, Bax and Bak proteins).

Bcl-2 = experiment: Immunoblot, Bcl-2 expression in CRL-2632 cells; type: cell-based, human; settings: CRL-2632, 20 μM, one to six hours (FIG. 13)
Description: as §1, §7

MCL-1 protein = experiment: Immunoblot, MCL-1 expression in CRL-2632 cells; type: cell-based, human; settings: for expression of MCL-1 protein: CRL-2632, synthetic coronatine analog 0.5 mM (FIG. 15)
Description: as §1, §7, §2

[3] = tested on: retinoblastoma tumor suppressor protein (Rb); experiment: Western blot, Rb phosphorylation in T-47D cells; type: cell-based, human; settings: 20 μM
Description: as §1
(§8) Hyperphosphorylation of Rb is a critical process and component for regulating the cell cycle. The phosphorylation of Rb enables cells to pass through particular cell cycle checkpoints and to enter the S phase of cell cycle. […] Similarly, expression of β-tubulin and phosphorylation of p38 MAPK were unaffected.

Bak = experiment: Immunoblot, Bak expression in CRL-2632 cells; type: cell-based, human; settings: CRL-2632, 20 μM, one to six hours (FIG. 13)
Description: as §1, §7

[4] = tested on: CRL-2632 (B-cell lymphoma cells); experiment: Cell viability, trypan blue exclusion assay; type: cell-based, human; settings: CRL-2632, eight-day period, trypan blue (FIG. 5)
Description: as §1, §5

cyclin D1 mRNA = experiment: Real-time RT-PCR in T-47D cells, cyclin D1; type: cell-based, human; settings: 25 uM, 48 hours, relative to untreated (ethanol) cells (FIG. 10)
Description: as §3, §4

[5] = tested on: T-47D (human breast ductal adenocarcinoma cells); experiment: Cell viability, trypan blue exclusion assay; type: cell-based; settings: eight-day period, trypan blue (FIG. 5)
Description: as §1, §5

[6] = tested on: CRL-5985 (human lung adenocarcinoma cells); experiment: Cell viability, trypan blue exclusion assay; type: cell-based; settings: CRL-5985, eight-day period, trypan blue (FIG. 5)
Description: as §1, §5

β-tubulin = experiment: Western blot, β-tubulin expression in T-47D cells; type: cell-based, human; settings: 20 μM
Description: as §1, §8

p27 mRNA = experiment: Real-time RT-PCR in T-47D cells, p27; type: cell-based, human; settings: 25 uM, 48 hours, vs ethanol (FIG. 11)
Description: as §3, §4

cyclin D1 = experiment: Western blot, cyclin D1 expression in T-47D cells; type: cell-based, human; settings: 20 μM, Western blot (FIG. 9)
Description: as §1, §8

[7] = tested on: T-47D human breast ductal adenocarcinoma cells; experiment: Cell growth and cell number of breast cancer cells; type: cell-based; settings: for cell growth arrest and cell death: summary statement, dose dependent
Description: as §1
T-47D human breast ductal adenocarcinoma cells were treated with 12-oxo-PDA and measured at three and eight-day intervals.
as §5, §6

[8] = tested on: CRL-2632 diffuse large B-cell lymphoma cells; experiment: Apoptosis / PARP cleavage immunoblot in CRL-2632 cells; type: cell-based, human; settings: for growth arrest and apoptosis: CRL-2632, synthetic coronatine analog 0.5 mM (FIG. 15)
Description: as §1
Regulated cell apoptosis is essential for the development and maintenance of the immune system. The highly regulated anti-apoptotic MCL-1 protein appears to enhance short-term survival and functions in genotoxic cell death. […] Thus, deletion of MCL-1 during early lymphocyte differentiation increases apoptosis and arrests the development of B and T-lymphocytes. In this regard, one hallmark of apoptosis is activation of the caspases (e.g., caspase-3, caspase-6, and caspase-7). Activation of caspases leads to the cleavage of a […] PARP protein into an 89-kDa fragment.
as §7, with “proteins). […]” for “proteins).”

p38 MAPK = experiment: Western blot, p38 MAPK phosphorylation in T-47D cells; type: cell-based, human; settings: 20 μM
Description: as §1, §8

[9] = tested on: CRL-5985 human lung adenocarcinoma cells; experiment: Cell growth, cell number and morphology of lung cancer cells; type: cell-based; settings: for cell growth arrest and cell death: CRL-5985, summary statement, dose dependent
Description: as §1
CRL-5985 human lung adenocarcinoma cells were treated with 12-oxo-PDA and measured at three and eight-day intervals.
Lung cancer cells were treated with concentrations of 12-oxo-PDA ranging from 15 μM to 50 μM (versus an untreated control sample).
as §5

tubulin = experiment: Tubulin polymerization in CRL-2632 cells (soluble/insoluble fractions, Western blot); type: cell-based, human; settings: CRL-2632, 20 μM, one to six hours (FIG. 16)
Description: as §1
The increase in insoluble tubulin fractions indicates polymerization of tubulin in treated cells.

MCL-1 = MCL-1 expression in Raji cells; type: cell-based; settings: synthetic coronatine analog 0.5 mM (FIG. 15)
Description: as §1, §2

[10] = CRL-2632, four-day period (FIG. 8)

CC[C@H]1C=C(C(=O)N[C@@]2(C(=O)O)C[C@@H]2CC)[C@H]2CCC(=O)[C@H]2C1 (stereo in doubt) [Coronatine]
activation of plant stress signaling (volatile emission, tendril coiling) (plants): can activate the stress signaling processes in plants

CC/C=C\C[C@@H]1C(=O)C=C[C@@H]1CCCCCCCC(=O)O [Formula 12-oxo-PDA, 12-oxo-phytodienoic acid]
lipid accumulation in the cytoplasm (cancer cells; Oil Red O staining): resulted in lipid accumulation in the cytoplasm
cell growth after removal of compound from culture medium (cancer cells; washout): did not restore cell growth
growth arrest and apoptosis [1]: arrest growth and induce apoptosis
C-FOS mRNA levels (C-FOS mRNA): no significant changes
decrease in total cell number ([2]; CRL-2632, eight-day period, vs untreated samples (FIG. 6)): ten-fold
total cell number over treatment period [2, 10]: decrease in total cell count
cell growth arrest and cell death [2]: arrests cell growth and induces cell death
morphological changes ([2]; CRL-2632, two and eight-day intervals (FIG. 4)): morphological changes
expression of Bax (Bax): no effect
expression of Bcl-2 (Bcl-2): no effect
expression of MCL-1 (MCL-1 protein; CRL-2632, 20 μM, one to six hours (FIG. 13)): inhibited the expression of MCL-1
expression of MCL-1 protein (MCL-1 protein): down-regulated expression of MCL-1
total Rb ([3]; Western blot): remained unchanged
Rb phosphorylation at the 807 and 811 serine residues ([3]; phospho-specific Rb antibody (FIG. 9)): inhibition of the hyperphosphorylation; also recorded: dramatically inhibited
expression of Bak (Bak): no effect
cell viability [4]: particularly effective
decrease in cyclin D1 mRNA levels (cyclin D1 mRNA): greater than twenty-fold
cell viability [5]: significant inhibitory effect
cell viability [6]: significant inhibitory effect
expression of β-tubulin (β-tubulin): unaffected
p27 mRNA levels (p27 mRNA): no significant changes
cyclin D1 expression (cyclin D1): inhibition of cyclin D1 expression
decrease in cell number ([7]; eight-day period, vs untreated samples (FIG. 6)): three-fold
total cell number over treatment period ([7]; four-day period (FIG. 7)): decrease in total cell count
cell growth arrest and cell death [7]: arrests cell growth and induces cell death
cell growth and accumulation ([7]; three and eight-day intervals, vs untreated control (FIG. 1)): significant decrease in cell growth and accumulation
cleavage of PARP ([8]; CRL-2632, 20 μM, one to six hours, immunoblot): time-dependent cleavage of PARP
growth arrest and apoptosis [8]: arrest growth and induce apoptosis
phosphorylation of p38 MAPK (p38 MAPK): unaffected
decrease in cell number ([9]; CRL-5985, eight-day period, vs untreated samples (FIG. 6)): five-fold
cell growth arrest and cell death [9]: arrests cell growth and induces cell death
morphological changes ([9]; CRL-5985, three and eight-day intervals (FIG. 2)): ceased three-dimensional growth patterns and became more diffuse and single layered
cell growth ([9]; CRL-5985, three and eight-day intervals, vs control (FIG. 2)): significant decrease in cell growth
cell growth, concentration dependence ([9]; lung cancer cells, 15 μM to 50 μM, eight days (FIG. 3)): decrease in cell growth proportional to the concentration
tubulin polymerization (soluble vs insoluble tubulin fractions) (tubulin): induces tubulin polymerization
expression of MCL-1 (MCL-1): down-regulated expression of MCL-1

CC/C=C\C[C@H]1C(=O)CC[C@@H]1CC(=O)O [jasmonic acid, Jasmonic acid, reference compound]
growth inhibition relative to untreated control [2, 10]: some growth inhibition
total cell number over treatment period [2, 10]: net increase in total tumor cell number
cell growth arrest and cell death [2]: fails to be as effective
growth inhibition relative to untreated control ([7]; four-day period (FIG. 7)): some growth inhibition
total cell number over treatment period ([7]; four-day period (FIG. 7)): net increase in total tumor cell number
cell growth arrest and cell death [7]: fails to be as effective
cell growth arrest and cell death [9]: fails to be as effective

CC[C@H](C)[C@H](NC(=O)c1cc(N=[N+]=[N-])cc2c1CCC2=O)C(=O)OC [synthetic coronatine]
growth arrest and apoptosis [1]: arrest growth and induce apoptosis
growth of CRL-2632 cells (growth ratio over ethanol control) ([2]; CRL-2632 (FIG. 14)): inhibit growth
expression of MCL-1 protein (MCL-1 protein): down regulate the expression of the MCL-1 protein
growth arrest and apoptosis [8]: arrest growth and induce apoptosis
activation of plant stress signaling (volatile emission, tendril coiling) (plants): can induce volatile emissions and/or tendril coiling
expression of MCL-1 (MCL-1): down-regulated expression of MCL-1

Source: patent US20040259906A1, “Methods for controlling the proliferation of cells” (priority 2003, published 2004)
